In one assay the target is T1, Full length Human HDAC1 (Homo sapiens, UniProt Q13547).
T1 construct: Full length Human HDAC1; His (C); FLAG (C); host or cells: baculovirus expression system
Put plainly: HDAC1 enzymatic assay (deacetylation of FAM-labeled peptide substrate, microfluidic electrophoresis). Conditions: for IC50: recombinant enzymatic assay. Format: biochemical. As for the experimental part:
(§1) HDAC2 and HDAC1 Enzymatic Assay (HDAC2 and HDAC1 IC50 Data)
(§2) The following describes an assay protocol for measuring the deacetylation of a peptide substrate by HDAC2 or HDAC1.
(§3) HD AC protein composition and respective substrate peptides are summarized below.
(§4) HD AC reactions are assembled in 384 well plates (Greiner) in a total volume of 20 μL as following:
(§5) HDAC proteins are pre-diluted in the assay buffer comprising: 100 mM HEPES, pH 7.5, 0.1% BSA, 0.01% Triton X-100, 25 mM KCl and dispensed into 384 well plate (10 uL per well).
(§6) Test compounds are serially pre-diluted in DMSO and added to the protein samples by acoustic dispensing (Labcyte Echo). Concentration of DMSO is equalized to 1% in all samples.
(§7) Control samples (0%-inhibition in the absence of inhibitor, DMSO only) and 100%-inhibition (in the absence of enzyme) are assembled in replicates of four and used to calculate the %-inhibition in the presence of compounds.
(§8) At this step compounds can be pre-incubated with enzyme if desired.
(§9) The reactions are initiated by addition of 10 uL of the FAM-labeled substrate peptide pre-diluted in the same assay buffer. Final concentration of substrate peptide is 1 uM (HDAC1-2).
(§10) The reactions are allowed to proceed at room temperature. Following incubation, the reactions are quenched by addition of 50 μL of termination buffer (100 mM HEPES, pH7.5, 0.01% Triton X-100, 0.1% SDS). Terminated plates are analyzed on a microfluidic electrophoresis instrument (Caliper LabChip® 3000, Caliper Life Sciences/Perkin Elmer) which enables electrophoretic separation of de-acetylated product from acetylated substrate. A change in the relative intensity of the peptide substrate and product is the parameter measured. Activity in each test sample is determined as the product to sum ratio (PSR): P/(S+P), where P is the peak height of the product, and S is the peak height of the substrate. Percent inhibition (Pinh) is determined using the following equation: Pinh=(PSR0% inh−PSRcompound)/(PSR0% inh−PSR100% inh)*100, in which: PSRcompound is the product/sum ratio in the presence of compound, PSR0% inh is the product/sum ratio in the absence of compound and the PSR100% inh is the product/sum ratio in the absence of the enzyme. To determine IC50 of compounds (50%-inhibition) the %-inh data (Pinh versus compound concentration) are fit by a 4 parameter sigmoid dose-response model using XLfit software (IDBS).
(§11) In the table, “A” indicates a IC50 value of less than 0.5 μM; “B” a IC50 value from 0.5 μM to 1.0 μM; “C” a IC50 value of greater than 1.0 μM and less than or equal to 2.0 μM; and “D” indicates an IC50 value of greater than 2.0 μM. NT=Not Tested.

The next assay deals with T2, HDAC2 (Homo sapiens, UniProt Q92769).
T2 construct: host or cells: SH-SY5Y cells
T2 sequence (Q92769 whole entry): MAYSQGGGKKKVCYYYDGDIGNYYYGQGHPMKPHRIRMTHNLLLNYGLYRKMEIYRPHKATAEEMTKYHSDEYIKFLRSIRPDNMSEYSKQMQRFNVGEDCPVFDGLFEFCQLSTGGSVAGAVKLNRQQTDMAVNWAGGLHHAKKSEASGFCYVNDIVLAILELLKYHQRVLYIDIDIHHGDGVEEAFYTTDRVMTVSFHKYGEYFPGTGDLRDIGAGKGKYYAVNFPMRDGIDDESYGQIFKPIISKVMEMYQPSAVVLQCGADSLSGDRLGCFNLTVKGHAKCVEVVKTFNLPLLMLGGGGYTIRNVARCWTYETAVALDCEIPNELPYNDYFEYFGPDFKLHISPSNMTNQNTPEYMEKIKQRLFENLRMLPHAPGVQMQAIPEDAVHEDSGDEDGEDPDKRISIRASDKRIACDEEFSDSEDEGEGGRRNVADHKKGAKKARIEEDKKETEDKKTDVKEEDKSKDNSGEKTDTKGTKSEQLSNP
Put plainly: HDAC2 Enzymatic Inhibition Assay in SH-SY5Y Cell Lysate with an Exogenous Substrate (HDAC-Glo 2). It counts as cell-based. Conditions: for IC50: SH-SY5Y cells. As for the experimental part: HDAC2 Enzymatic Inhibition Assay in SH-SY5Y Cell Lysate with an Exogenous Substrate
SH-SY5Y cells (Sigma) were cultured in Eagle's Modified Essential Medium supplemented with 10% fetal bovine serum and pen/strep. Twenty-four hours prior to compound dosing 20 uL of cells were plated in white 384 well plates at a density of 1,500 cells/well. Compounds were serially diluted in neat DMSO and then diluted 1:100 v/v into media without FBS and mixed. Media was removed from the plated cells and the diluted compounds in serum free media (1% v/v final DMSO) were added and incubated at 37° C. for five hours. Ten uL of HDAC-Glo 2 reagent with 0.1% Triton X-100 was then added, the plate was mixed and allowed to develop at room temperature for 100 minutes. Plates were then read with a Spectramax LMax luminometer employing a 0.4 s integration time. Dose response curves were constructed with normalized data where CI-994 at 100 uM was defined as 100% inhibition and DMSO alone as 0% inhibition.
as §11

The target in a further assay is T3, Full length Human HDAC2 (Homo sapiens, UniProt Q92769).
T3 construct: Full length Human HDAC2; FLAG (C); host or cells: baculovirus expression system
T3 sequence (Q92769 whole entry): as above
Description: HDAC2 enzymatic assay (deacetylation of FAM-labeled peptide substrate, microfluidic electrophoresis). To be noted: for IC50: recombinant enzymatic assay. It counts as biochemical. As for the experimental part:
as §1, §2, §3, §4, §5, §6, §7, §8, §9, §10, §11

[1] abbreviates: five hours incubation, Table 3, class symbols.
Where [2] appears, read: versus matched Comparator with heteroaromatic ring directly linked to azetidine.

Consider twelve compounds from patent US20210276977A1, “BICYCLIC INHIBITORS OF HISTONE DEACETYLASE” (Alkermes, Inc., priority 2018, published 2021).

For orientation: IC50 means the concentration needed to halve the response being measured.

A value given as a limit tells only on which side of the number the result lay.

T1 sequence (Q13547 whole entry): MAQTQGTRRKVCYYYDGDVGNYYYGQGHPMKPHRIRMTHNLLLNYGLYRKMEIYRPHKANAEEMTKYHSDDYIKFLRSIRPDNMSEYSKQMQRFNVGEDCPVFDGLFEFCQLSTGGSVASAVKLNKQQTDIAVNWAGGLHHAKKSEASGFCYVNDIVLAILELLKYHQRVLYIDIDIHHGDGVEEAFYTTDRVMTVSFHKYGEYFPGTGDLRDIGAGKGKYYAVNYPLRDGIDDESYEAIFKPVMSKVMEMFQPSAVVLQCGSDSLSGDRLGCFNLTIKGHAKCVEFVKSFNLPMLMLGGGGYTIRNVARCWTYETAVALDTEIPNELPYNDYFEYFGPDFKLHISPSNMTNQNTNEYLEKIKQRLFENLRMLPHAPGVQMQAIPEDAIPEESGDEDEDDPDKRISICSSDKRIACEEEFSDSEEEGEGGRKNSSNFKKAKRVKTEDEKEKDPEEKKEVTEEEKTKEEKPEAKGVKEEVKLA

For `Nc1ccc(-c2ccc(F)cc2)nc1NC(=O)N1CC(Cc2ccccn2)C1` [Compound 74], the IC50 at Full length Human HDAC1 (Table 2, class symbols) is under 500 nM; against HDAC2 (setting [1]), 1000 to 2000 nM; at Full length Human HDAC2 (Table 2, class symbols), 500 to 1000 nM.

In the case of `Cn1ccnc1CC1CN(C(=O)Nc2nc(-c3ccc(F)cc3)ccc2N)C1` [Compound 71], the IC50 is 500 to 1000 nM on Full length Human HDAC1 (Table 2, class symbols); 500 to 1000 nM against HDAC2 (setting [1]); over 2000 nM on Full length Human HDAC2 (Table 2, class symbols).

Turning to `Cc1nccnc1CC1CN(C(=O)Nc2nc(-c3ccc(F)cc3F)ccc2N)C1` [Compound 16], the IC50 at Full length Human HDAC1 (Table 2, class symbols) lay within 500 to 1000 nM; against HDAC2 (setting [1]) it was 500 to 1000 nM; on Full length Human HDAC2 (Table 2, class symbols), 1000 to 2000 nM.

On to `Cc1ncc(C2CN(C(=O)Nc3nc(-c4ccc(F)cc4F)ccc3N)C2)cn1` [Comparator B, reference compound], for which the concentration for half-maximal inhibition (IC50) at Full length Human HDAC1 (Table 4, numeric) was over 30000 nM; against HDAC2 (Table 4, numeric), 30000 nM; at Full length Human HDAC2 (Table 4, numeric), over 30000 nM.

Turning to `Nc1ccc(-c2ccc(F)cc2F)nc1NC(=O)N1CC(c2ncccn2)C1` [Comparator A, reference compound], the concentration for half-maximal inhibition (IC50) on Full length Human HDAC1 (Table 4, numeric) was 4580 nM; against HDAC2 (Table 4, numeric), over 52000 nM; at Full length Human HDAC2 (Table 4, numeric) it was 5290 nM.

Consider `Nc1ccc(-c2ccc(F)cc2F)nc1NC(=O)N1CC(CCc2ncccn2)C1` [Compound 44], for which the 50% inhibitory concentration (IC50) was over 2000 nM on Full length Human HDAC1 (Table 2, class symbols); over 2000 nM at HDAC2 (setting [1]); over 2000 nM on Full length Human HDAC2 (Table 2, class symbols).

On to `Nc1ccc(-c2ccc(F)cc2F)nc1NC(=O)N1CC(Cc2ncccn2)C1` [Compound 1], for which the IC50 on Full length Human HDAC1 (Table 2, class symbols) was under 500 nM; at Full length Human HDAC1 (Table 4, numeric), 454 nM; against HDAC2 (Table 4, numeric) it was 496 nM; against HDAC2 (setting [1]), under 500 nM; on Full length Human HDAC2 (Table 2, class symbols), 500 to 1000 nM; at Full length Human HDAC2 (Table 4, numeric), 700 nM. For the same compound, at Full length Human HDAC1 (setting [2]), the “fold more potent in the HDAC1 recombinant enzymatic assay than the corresponding comparator without spacer X” value worked out at 10 fold. On HDAC2 (setting [2]), the “fold more potent in the SH-SY5Y cell assay than the corresponding comparator without spacer X” value is given as 100 fold. Further, at Full length Human HDAC2 (setting [2]), the “fold more potent in the HDAC2 recombinant enzymatic assay than the corresponding comparator without spacer X” value is over 7 fold.

As to `Nc1ccc(-c2ccccc2F)nc1NC(=O)N1CC(C(F)(F)c2ncc(F)cn2)C1` [Compound 37], the concentration for half-maximal inhibition (IC50) lay in the range of 500 to 1000 nM at Full length Human HDAC1 (Table 2, class symbols); 500 to 1000 nM against HDAC2 (setting [1]); 500 to 1000 nM at Full length Human HDAC2 (Table 2, class symbols).

Consider `Cc1cnc(C2CN(C(=O)Nc3nc(-c4ccc(F)cc4F)ccc3N)C2)cn1` [Comparator C, reference compound], for which the half-inhibitory concentration (IC50) came to 13900 nM on Full length Human HDAC1 (Table 4, numeric); 9700 nM at HDAC2 (Table 4, numeric); 13500 nM on Full length Human HDAC2 (Table 4, numeric).

Turning to `Nc1ccc(-c2ccc(F)cc2F)nc1NC(=O)N1CC(C(F)(F)c2ncc(F)cn2)C1` [Compound 34], the IC50 was 500 to 1000 nM on Full length Human HDAC1 (Table 2, class symbols); over 2000 nM against HDAC2 (setting [1]); 500 to 1000 nM on Full length Human HDAC2 (Table 2, class symbols).

With `Cc1ccnc(CC2CN(C(=O)Nc3nc(-c4ccc(F)cc4)ccc3N)C2)n1` [Compound 72], the IC50 was under 500 nM on Full length Human HDAC1 (Table 2, class symbols); 1000 to 2000 nM against HDAC2 (setting [1]); 500 to 1000 nM on Full length Human HDAC2 (Table 2, class symbols).

On to `COCc1ccc(CC2CN(C(=O)Nc3nc(-c4ccc(F)cc4F)ccc3N)C2)cn1` [Compound 9], for which the IC50 on Full length Human HDAC1 (Table 2, class symbols) is 1000 to 2000 nM; on HDAC2 (setting [1]), over 2000 nM; at Full length Human HDAC2 (Table 2, class symbols) it was over 2000 nM.
